What was measured:
GH3 cells = experiment: T3 treatment of GH3 cells transfected with human prepro-TRH: TRH mRNA expression; type: cell-based, rat; settings: 1-100 nM
[1] = test system: SCW-induced inflammatory response; experiment: Thyroid status and SCW-induced inflammatory response in female rats; type: in vivo, rat
Source text: RA is an autoimmune disease characterized by chronic degradation of the joints resulting from inflammation of synovial membranes. SCW-induced inflammation in the autoimmune prone female Lewis rat is an accepted animal model for the study of RA. […] It is likely that increased thyroid activity decreases the susceptibility to inflammatory immune disease by increasing glucocorticoid levels. The discovery of CRIF encoded within the same precursor as TRH establishes a direct link between the HPA and thyroid axes. Thyroid hormones may play a fundamental role in regulating the HPA axis by modulation of levels of prepro-TRH mRNA.
To determine the role played by thyroid hormones and concomitant changes in the HPA axis in the development of SCW-induced inflammatory response, expression of genes which reflect the status of thyroid function (TRH), pituitary-adrenal activity (POMC) and inflammation (IL-1β and MIP-1α, a macrophage specific inflammatory protein) was measured. Adult female rats were fed a regular diet (control), or a regular diet plus 0.012% T4 (hyperthyroid) or 0.05% 6-propyl-thiouracil (PTU) supplied in the in drinking water (hypothyroid), for seven weeks. A preparation of SCW (20 μg/g of body weight) was administered intraperitoneally to the rats three days before decapitation. Anterior pituitary POMC, hypothalamic TRH and peritoneal macrophage IL-1β and MIP-1α mRNA levels were assessed by Northern blot hybridization analysis using specific cDNA probes. The levels of mRNA were normalized to the housekeeping gene, GAPD, and were quantified by image analysis densitometry. Plasma levels of TSH and CORT were determined by RIA.

[2] = test system: SCW-induced inflammatory response; settings: Rittenhouse et al., 1995; cited from earlier work
AtT-20 cells = experiment: Transfection of AtT-20 cells with prepro-TRH expression plasmids: ACTH secretion (RIA); type: cell-based, mouse; settings: concluded from deletion studies and known prepro-TRH processing
Source text: The expression vector pCMV-TRH comprises cDNA encoding rat TRH under the control of the human cytomegalovirus (HCMV) immediate early promoter (Lee et al., 1988, J. Biol. Chem. 263:16604-16609). To generate this vector, a 1,322 bp fragment comprising sequences encoding TRH was excised from the plasmid pSP64, by digestion with HindIII and EcoRI. This fragment was then inserted into pcDNA-3 (Invitrogen, San Diego, Calif.) to generate pCMV-TRH comprising the HCMV immediate early promoter, the bovine growth hormone polyadenylation signal and cDNA encoding TRH inserted therebetween. This plasmid also contains sequences encoding resistance to neomycin and can therefore be used to select stably transfected cells.
Referring to FIG. 1, two deletions were made in the expression vector pCMV-TRH. The first deletion, ΔBstEII, contains a deletion between nucleotides 506 and 787 in TRH cDNA. […] To generate ΔBstEII, pCMV-TRH was digested with BstEII, and a 6.4 kb fragment was isolated therefrom. The 5′ sticky ends were filled in with Klenow to create blunt ends, and the 6.4 kb fragment was then religated to form ΔBstEII. This religation results in restoration of the original wild type reading frame. […]
ACTH-like immunoreactivity was measured using an antiserum which reacts with amino acids 1-24 and 1-39 on ACTH on an equimolar basis. […]

For `N[C@@H](Cc1cc(I)c(Oc2ccc(O)c(I)c2)c(I)c1)C(=O)O` [T3], the “expression of TRH mRNA” value (GH3 cells) was “suppressing expression of TRH mRNA”.
In the case of `N[C@@H](Cc1cc(I)c(Oc2cc(I)c(O)c(I)c2)c(I)c1)C(=O)O` [T4, thyroxin], the “increase in macrophage MIP-1α mRNA levels on SCW administration” value ([1]; SCW 20 μg/g ip, SCW-administered control rats 17-fold) is reported as 1.7 fold, the “plasma CORT levels” value ([1]; altered thyroid status, FIG. 12E) is reported as “significant increase” and the “decrease of hypothalamic TRH mRNA levels” value ([1]; hyperthyroid group, 0.012% in diet, seven weeks) is reported as 20%. For the same molecule, the “inflammatory effects of SCW-induced autoimmune responses” value [2] was “decreases the adverse inflammatory effects”.
For “prepro-TRH 172-199: includes the uncleaved fourth TRH portion covalently bound to the amino terminal portion of peptide 178-199 (QHPGRRFIDPELQRSWEEKEGEGVLMPE; UniProt P01150 172-199, looked up, fragment)”, the CRIF activity (AtT-20 cells) was “has CRIF activity”.

Source: US6348571B1, “Corticotropin release inhibiting factor and methods of using same” (Northwestern University, priority 1994, dated 2002)
